These are literature values, as cited in patent publication US10548859B2, “Methods for storing Cysteamine formulations and related methods of treatment” (Horizon Orphan LLC, priority 2015, dated 2020).

For this series the following is noted: children with cystinosis.

On to `COc1ccc2c(c1)c(CC(=O)O)c(C)n2C(=O)c1ccc(Cl)cc1` [indomethacin], for which the “reduction of urine volume and liquid consumption” value is recorded as “about 30%”.
